Measured values as given in PubChem BioAssay (NCI).
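These data come from cells grown in 96-well plates and exposed to compound for 48 hours at five concentrations. GI50 marks 50% less growth. TGI marks complete inhibition of growth.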

Assays:
Assay in all cases: inhibition of tumour cell growth, NCI panel, 48 h
HS 578T breast = tested on: HS 578T breast
MOLT-4 leukemia = tested on: MOLT-4 leukemia
HOP-92 NSCLC = tested on: HOP-92 NSCLC
UO-31 renal = tested on: UO-31 renal
OVCAR-5 ovarian = tested on: OVCAR-5 ovarian
SF-295 CNS = tested on: SF-295 CNS
SF-268 CNS = tested on: SF-268 CNS
HL-60(TB) leukemia = tested on: HL-60(TB) leukemia
DU-145 prostate = tested on: DU-145 prostate
MDA-MB-468 breast = tested on: MDA-MB-468 breast
OVCAR-3 ovarian = tested on: OVCAR-3 ovarian
OVCAR-8 ovarian = tested on: OVCAR-8 ovarian
MALME-3M melanoma = tested on: MALME-3M melanoma
SK-MEL-28 melanoma = tested on: SK-MEL-28 melanoma
PC-3 prostate = tested on: PC-3 prostate
SW-620 colon = tested on: SW-620 colon
U251 CNS = tested on: U251 CNS
SK-MEL-5 melanoma = tested on: SK-MEL-5 melanoma
NCI-H226 lung = tested on: NCI-H226 lung
A549 NSCLC = tested on: A549 NSCLC
SN12C renal = tested on: SN12C renal
HCT-116 colon = tested on: HCT-116 colon
IGROV1 ovarian = tested on: IGROV1 ovarian
NCI-H23 lung = tested on: NCI-H23 lung
HCC-2998 colon = tested on: HCC-2998 colon
OVCAR-4 ovarian = tested on: OVCAR-4 ovarian
SNB-19 CNS = tested on: SNB-19 CNS
UACC-62 melanoma = tested on: UACC-62 melanoma
RPMI-8226 leukemia = tested on: RPMI-8226 leukemia
COLO 205 colon = tested on: COLO 205 colon
SK-OV-3 ovarian = tested on: SK-OV-3 ovarian
ACHN renal = tested on: ACHN renal
CAKI-1 renal = tested on: CAKI-1 renal
BT-549 breast = tested on: BT-549 breast
LOX IMVI melanoma = tested on: LOX IMVI melanoma
SK-MEL-2 melanoma = tested on: SK-MEL-2 melanoma
HOP-62 NSCLC = tested on: HOP-62 NSCLC
SNB-75 CNS = tested on: SNB-75 CNS
786-0 renal = tested on: 786-0 renal
HT29 colon = tested on: HT29 colon
EKVX NSCLC = tested on: EKVX NSCLC
HCT-15 colon = tested on: HCT-15 colon
K-562 leukemia = tested on: K-562 leukemia
T-47D breast = tested on: T-47D breast
M14 melanoma = tested on: M14 melanoma
CCRF-CEM leukemia = tested on: CCRF-CEM leukemia
RXF 393 renal = tested on: RXF 393 renal
TK-10 renal = tested on: TK-10 renal
MDA-MB-231 breast = tested on: MDA-MB-231 breast
MCF7 breast = tested on: MCF7 breast
NCI-H522 lung = tested on: NCI-H522 lung
NCI-H460 lung = tested on: NCI-H460 lung
SR leukemia = tested on: SR leukemia
KM12 colon = tested on: KM12 colon
A498 renal = tested on: A498 renal
SF-539 CNS = tested on: SF-539 CNS

SMILES: O=C(Nc1cccc(-c2cn(-c3ccc4oc(=O)ccc4c3)nn2)c1)Nc1cc(C(F)(F)F)cc(C(F)(F)F)c1
- GI50 (HS 578T breast): 5.16 µM
- TGI (HS 578T breast): > 100 µM
- GI50 (MOLT-4 leukemia): 3.82 µM
- TGI (MOLT-4 leukemia): > 100 µM
- GI50 (HOP-92 NSCLC): 3.66 µM
- TGI (HOP-92 NSCLC): 31.3 µM
- GI50 (UO-31 renal): 6.34 µM
- TGI (UO-31 renal): > 100 µM
- GI50 (OVCAR-5 ovarian): > 100 µM
- TGI (OVCAR-5 ovarian): > 100 µM
- GI50 (SF-295 CNS): 3.31 µM
- TGI (SF-295 CNS): > 100 µM
- GI50 (SF-268 CNS): 21.3 µM
- TGI (SF-268 CNS): > 100 µM
- GI50 (HL-60(TB) leukemia): 6.5 µM
- TGI (HL-60(TB) leukemia): > 100 µM
- GI50 (DU-145 prostate): 8.09 µM
- TGI (DU-145 prostate): > 100 µM
- GI50 (MDA-MB-468 breast): 2.43 µM
- TGI (MDA-MB-468 breast): 8.69 µM
- GI50 (OVCAR-3 ovarian): 3.31 µM
- TGI (OVCAR-3 ovarian): > 100 µM
- GI50 (OVCAR-8 ovarian): 5.73 µM
- TGI (OVCAR-8 ovarian): > 100 µM
- GI50 (MALME-3M melanoma): 28.2 µM
- TGI (MALME-3M melanoma): > 100 µM
- GI50 (SK-MEL-28 melanoma): > 100 µM
- TGI (SK-MEL-28 melanoma): > 100 µM
- GI50 (PC-3 prostate): 4.07 µM
- TGI (PC-3 prostate): > 100 µM
- GI50 (SW-620 colon): 55.5 µM
- TGI (SW-620 colon): > 100 µM
- GI50 (U251 CNS): 4.69 µM
- TGI (U251 CNS): > 100 µM
- GI50 (SK-MEL-5 melanoma): 4.18 µM
- TGI (SK-MEL-5 melanoma): > 100 µM
- GI50 (NCI-H226 lung): 5.57 µM
- TGI (NCI-H226 lung): > 100 µM
- GI50 (A549 NSCLC): 5.1 µM
- TGI (A549 NSCLC): > 100 µM
- GI50 (SN12C renal): 6.31 µM
- TGI (SN12C renal): > 100 µM
- GI50 (HCT-116 colon): 7.17 µM
- TGI (HCT-116 colon): > 100 µM
- GI50 (IGROV1 ovarian): 8.87 µM
- TGI (IGROV1 ovarian): > 100 µM
- GI50 (NCI-H23 lung): 3.34 µM
- TGI (NCI-H23 lung): > 100 µM
- GI50 (HCC-2998 colon): 8.14 µM
- TGI (HCC-2998 colon): > 100 µM
- GI50 (OVCAR-4 ovarian): 3.42 µM
- TGI (OVCAR-4 ovarian): > 100 µM
- GI50 (SNB-19 CNS): 10.1 µM
- TGI (SNB-19 CNS): 89.8 µM
- GI50 (UACC-62 melanoma): 6.8 µM
- TGI (UACC-62 melanoma): > 100 µM
- GI50 (RPMI-8226 leukemia): 2.88 µM
- TGI (RPMI-8226 leukemia): > 100 µM
- GI50 (COLO 205 colon): > 100 µM
- TGI (COLO 205 colon): > 100 µM
- GI50 (SK-OV-3 ovarian): 18.6 µM
- TGI (SK-OV-3 ovarian): > 100 µM
- GI50 (ACHN renal): 6.86 µM
- TGI (ACHN renal): 90.2 µM
- GI50 (CAKI-1 renal): 6.3 µM
- TGI (CAKI-1 renal): > 100 µM
- GI50 (BT-549 breast): 7.19 µM
- TGI (BT-549 breast): > 100 µM
- GI50 (LOX IMVI melanoma): 7.55 µM
- TGI (LOX IMVI melanoma): > 100 µM
- GI50 (SK-MEL-2 melanoma): 5.55 µM
- TGI (SK-MEL-2 melanoma): 25.7 µM
- GI50 (HOP-62 NSCLC): 8.08 µM
- TGI (HOP-62 NSCLC): 66.9 µM
- GI50 (SNB-75 CNS): 10.2 µM
- TGI (SNB-75 CNS): 45.1 µM
- GI50 (786-0 renal): 12.6 µM
- TGI (786-0 renal): 68.1 µM
- GI50 (HT29 colon): > 100 µM
- TGI (HT29 colon): > 100 µM
- GI50 (EKVX NSCLC): 5.04 µM
- TGI (EKVX NSCLC): > 100 µM
- GI50 (HCT-15 colon): 5.15 µM
- TGI (HCT-15 colon): > 100 µM
- GI50 (K-562 leukemia): 3.25 µM
- TGI (K-562 leukemia): > 100 µM
- GI50 (T-47D breast): 3.14 µM
- TGI (T-47D breast): > 100 µM
- GI50 (M14 melanoma): > 100 µM
- TGI (M14 melanoma): > 100 µM
- GI50 (CCRF-CEM leukemia): 3.31 µM
- TGI (CCRF-CEM leukemia): > 100 µM
- GI50 (RXF 393 renal): 2.44 µM
- TGI (RXF 393 renal): 8.47 µM
- GI50 (TK-10 renal): 13.4 µM
- TGI (TK-10 renal): 56.9 µM
- GI50 (MDA-MB-231 breast): 18.2 µM
- TGI (MDA-MB-231 breast): > 100 µM
- GI50 (MCF7 breast): 4.41 µM
- TGI (MCF7 breast): > 100 µM
- GI50 (NCI-H522 lung): 4.39 µM
- TGI (NCI-H522 lung): > 100 µM
- GI50 (NCI-H460 lung): 4.81 µM
- TGI (NCI-H460 lung): > 100 µM
- GI50 (SR leukemia): 5.63 µM
- TGI (SR leukemia): > 100 µM
- GI50 (KM12 colon): 5.2 µM
- TGI (KM12 colon): > 100 µM
- GI50 (A498 renal): 20.7 µM
- TGI (A498 renal): > 100 µM
- GI50 (SF-539 CNS): 15.1 µM
- TGI (SF-539 CNS): > 100 µM
